The test system of data set [1] is AR. Kind of data set: Inhibition of endogenous AR protein in LNCaP cells (Western blot). It is filed as cell-based. The note with it: ERG negative LNCaP; 0.25 μM and 1 μM; FIG. 4. On the procedure:
(§1) To investigate whether the azophenol compounds of the invention are selective inhibitors of ERG protein expression, representative azophenol compounds were further tested for its ability to inhibit AR and PSA activity in the following AR positive/ERG negative prostate cancer cell lines: LNCaP (mutant AR positive and ERG negative), as well as in LAPC4 cells that are AR (wild type) positive and ERG negative.
(§2) Inhibition of ERG protein expression by the test compounds were determined by Western blot analysis. The ERG specific monoclonal antibody CPDR ERG-MAb was used as the primary antibody. In brief, Western blot was performed by running a fixed amount of total protein extracted from cell lysates of the treated cells using (4-12% Bis-Tris) gel by electrophoresis, followed by transfer to membrane and incubation with primary antibody and continued with HRP-conjugated secondary antibody. Cultured cells were treated at specific dosages with each of the tested ERG inhibitors. Following incubation of the treated cells for an indicated time period, cells were lysed using Mammalian Protein Extraction Reagent (M-PER; Pierce, Rockford, Ill.) containing a protease inhibitor cocktail and phosphatase inhibitor cocktails I & III (Sigma, St Louis, Mo.). […]
Background: Immunoblotting shows a protein as a band on a membrane.

For a further data set, the system named is HUVEC. Nature of the data set: HUVEC cell growth. The format is cell-based, human. Particulars: 0.25 μM and 1 μM, FIG. 11. Here is the method: (§3) Approximately 48 hours following plating of cells, the appropriate test compound is added to each well of the tissue culture dish at a predetermined concentration. The medium was replenished every 24 hours with fresh growth medium containing the same concentration of the same test compound for indicated period of the cell growth inhibition assay. Percent cell growth inhibition was calculated using a hemocytometer for estimating cell density in each of the test wells of the tissue culture dish and trypan blue dye exclusion microscopy and photography to estimate the fraction of viable cells in each test well.

The test system of another data set is BPH-1 cells. Kind of data set: BPH-1 cell growth. The note with it: 0.25 μM and 1 μM, FIG. 12. The format is cell-based. On the procedure:
as §3

Data set [2] deals with T1, ERG protein (Homo sapiens, UniProt P11308).
T1 sequence (P11308 1-479): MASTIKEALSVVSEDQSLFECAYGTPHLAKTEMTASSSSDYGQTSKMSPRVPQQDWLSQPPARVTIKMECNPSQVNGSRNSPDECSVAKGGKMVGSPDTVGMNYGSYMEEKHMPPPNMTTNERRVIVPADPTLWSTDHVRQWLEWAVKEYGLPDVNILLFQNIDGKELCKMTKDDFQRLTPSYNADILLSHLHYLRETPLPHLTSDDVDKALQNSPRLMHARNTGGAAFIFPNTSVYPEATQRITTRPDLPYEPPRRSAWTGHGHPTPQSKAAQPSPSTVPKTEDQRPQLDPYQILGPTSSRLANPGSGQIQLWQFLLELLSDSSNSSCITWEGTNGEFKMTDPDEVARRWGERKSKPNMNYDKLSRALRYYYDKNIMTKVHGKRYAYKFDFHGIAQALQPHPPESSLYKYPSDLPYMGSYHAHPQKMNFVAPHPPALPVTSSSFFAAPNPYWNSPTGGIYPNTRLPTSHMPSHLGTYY
Nature of the data set: Inhibition of ERG protein in HUVEC normal endothelial cells (Western blot). It is filed as cell-based. Particulars: 0.25 μM and 1 μM, FIG. 10. On the procedure: as §2, with “Mo.). Cell lysates containing 50 μg of total protein were electrophoresed through 4-12% Bis-Tris Gel (Invitrogen, Carlsbad, Calif.) and the cellular proteins were transferred to PVDF membrane (Invitrogen, Carlsbad, Calif.). Membranes were incubated at 4° C. for 12 hours with primary antibodies for AR, PSA, GAPDH, α-Tubulin, apoptosis markers and cell cycle regulators.” for “Mo.).”

Data set [3] deals with T1, ERG protein. Kind of data set: Inhibition of endogenous ERG protein in COLO320 cells (Western blot). The format is cell-based. Further details: host or cells: COLO320. Particulars: 0.25 μM and 1 μM, FIG. 8. On the procedure: as §2, with “Mo.). Cell lysates containing 50 μg of total protein were electrophoresed through 4-12% Bis-Tris Gel (Invitrogen, Carlsbad, Calif.) and the cellular proteins were transferred to PVDF membrane (Invitrogen, Carlsbad, Calif.). Membranes were incubated at 4° C. for 12 hours with primary antibodies for AR, PSA, GAPDH, α-Tubulin, apoptosis markers and cell cycle regulators.” for “Mo.).”

Another data set has as its system PSA. Nature of the data set: Inhibition of endogenous PSA protein in LNCaP cells (Western blot). It is filed as cell-based. The note with it: ERG negative LNCaP; 0.25 μM and 1 μM; FIG. 4. On the procedure: as §1, §2
Data set [4] relates to AR. Nature of the data set: Inhibition of endogenous AR protein in LAPC-4 cells (Western blot). Particulars: ERG negative LAPC-4; 0.25 μM and 1 μM; FIG. 6. The format is cell-based. On the procedure: as §1, §2
The next data set relates to VCaP cells. Kind of data set: VCaP cell growth inhibition. The format is cell-based. The note with it: for inhibition of VCaP cell growth: 0.1, 0.2, 0.4, 0.6, 0.8 and 1 μM, FIG. 15, 18; for inhibition of the growth of ERG harboring prostate cancer cells: VCaP, 0.25 μM and 1 μM, FIG. 3. On the procedure: as §3
To investigate whether the azophenol compounds selectively arrested the growth of ERG positive cancer cells (VCaP), VCaP cells were cultured to achieve cells in logarithmic growth and these cells were then plated in 6 well tissue culture dishes in duplicates at a cell density of 0.2×10^6 cells per well. The plated cells were exposed to 0, 0.2, 0.4, 0.6, 0.8 and 1 μM concentrations of each compound for a period of 8 days. At the end of time period, cells were recovered from the test plate, washed, trypsinized and the cell density of viable cells were determined with trypan blue dye staining method and automated cell counter Bio-Rad TC10. The IC50 of cell growth inhibition of each compound was determined by trypsinizing the cells at the end of the experiment and counting the cells by using the automated cell counter (Bio-Rad TC10 automated cell counter). The average cell numbers of each concentration were used to calculate the IC50 of each compound with the GraphPad Prism 6 software.

A further data set relates to COLO320 cells. Kind of data set: COLO320 cell growth. Particulars: 0.25 μM and 1 μM, FIG. 9. The format is cell-based. On the procedure: as §3

As to `Cc1ccc(O)c(N=Nc2nccs2)c1` [Compound 2], the “inhibition of endogenous AR protein” value in the data set with AR [1] is reported as “lack of inhibition”. In the data set on HUVEC, the “growth of ERG harboring normal endothelial cells” value is recorded as “do not affect the growth”. Besides, the “growth of ERG negative prostate-derived immortalized cells” value in the data set on BPH-1 cells is recorded as “do not affect the growth”. The “inhibition of ERG protein” value against ERG protein [2] is “lack of inhibition”. Also, the “inhibition of endogenous ERG protein” value against ERG protein [3] is reported as “inhibition”. Also, the “inhibition of endogenous PSA protein” value with PSA was “lack of inhibition”. For the same compound, the “inhibition of endogenous AR protein” value in the data set with AR [4] is “do not inhibit”. Also, in the data set with VCaP cells, the “inhibition of VCaP cell growth” value is “inhibition” and the “inhibition of the growth of ERG harboring prostate cancer cells” value is listed as “inhibition”. Also, the “inhibition of growth of ERG harboring colon cancer cells” value with COLO320 cells is listed as “inhibition”.

`CC(C)c1ccc(O)c(N=Nc2nccs2)c1` [Compound 1]: the “inhibition of endogenous AR protein” value in the data set on AR [1] is “lack of inhibition”. In addition, in the data set on HUVEC, the “growth of ERG harboring normal endothelial cells” value is recorded as “do not affect the growth”. In addition, in the data set with BPH-1 cells, the “growth of ERG negative prostate-derived immortalized cells” value was “do not affect the growth”. Also, the “inhibition of ERG protein” value against ERG protein [2] is “lack of inhibition”. Also, the “inhibition of endogenous ERG protein” value on ERG protein [3] is on record as “inhibition”. In addition, the “inhibition of endogenous PSA protein” value in the data set with PSA is listed as “lack of inhibition”. Besides, the “inhibition of endogenous AR protein” value in the data set on AR [4] was “do not inhibit”. Further, in the data set on VCaP cells, the “inhibition of VCaP cell growth” value is listed as “inhibition” and the “inhibition of the growth of ERG harboring prostate cancer cells” value is given as “inhibition”. Moreover, the “inhibition of growth of ERG harboring colon cancer cells” value in the data set with COLO320 cells is recorded as “inhibition”.

Source of the values: US11648239B2, “Azophenols as ERG oncogene inhibitors” (The Henry M. Jackson Foundation for the Advancement of …, priority 2015, dated 2023).
